In the data set the test system is mRNA of firefly luciferase. Briefly: Suppression of firefly luciferase reporter gene expression by shRNA in HeLa cells (dual luciferase assay). To be noted: different shRNA concentrations, read-out: IC50 for suppressing expression of firefly luciferase gene. Type of data set: cell-based. On the procedure: In this Example, various shRNAs prepared by T7 transcription and gel purification were introduced into HeLa cells by lipofection together with a plasmid encoding a target reporter gene (firefly luciferase) and a control plasmid endocing a Renilla luciferase gene. Suppression of the target gene expression was investigated based on the luminescence of luciferase. […]
HeLa cells were seeded at 1.5×10^4 cells (100 μL of culture medium)/well in a 96-well plate and were cultured in an MEM medium containing 10% fetal bovine serum but not containing antibiotics for 24 hr. […] After culturing for 22 hr, the intensity of luminescence emitted from each of the two types of luciferase proteins was determined.
The effect of suppressing expression of the firefly luciferase protein, which is the target of shRNA, was analyzed by the intensities of luminescence emitted from the firefly luciferase and Renilla luciferase using dual luciferase reporter assay reagent (Promega Corporation). […] The resulting solution was mixed with 100 μL of LAR II reagent, and the luminescence of the firefly luciferase was detected (exposure time: 120 sec) with LAS 4000 (Fujifilm Corporation), then, 100 μL of Stop & Glo reagent was added thereto, and the luminescence of the Renilla luciferase was detected (exposure time: 200 sec). […]

For “shRNAF1 WT: 52-mer short hairpin RNA (SEQ ID NO: 10) targeting mRNA of firefly luciferase, A36 unsubstituted (GGAGCCUUCAGGAUUACAAGAUUCAAGAGUCUUGUAAUCCUGAAGGCUCCUU; short hairpin RNA, synthesis route not given here, further chemistry not given here)”, the IC50 was roughly 0.02 nM.
